These results are taken from patent US9023789B2, “Amylin analogs and pharmaceutical compositions thereof” (Novo Nordisk A/S, priority 2012, dated 2015).

This assay deals with T1, human amylin 3(a) receptor (human calcitonin receptor + RAMP-3) in BHK570 cells (Homo sapiens, UniProt O60896+P30988).
T1 construct: expressed in transfected cells
As to the kind of experiment: ASSAY (II)a functional assay, human amylin receptor (CRE luciferase). It is filed as cell-based. In short, it runs like this:
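BHK CRE-luc cells, calcitonin (a) receptor ± RAMP-3 (amylin 3(a)); overnight seeding, 37° C/5% CO2. 3 h ligand exposure, DMEM/10% FBS/10 mM Hepes pH 7.4. LucLite 30 min RT; luminescence (SPC).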

The mark [1] stands for this setting: hCTR funct. EC50 divided by hAmylin-R funct. EC50.
[2] abbreviates: hCTR funct. EC50 over hAmylin-R funct. EC50.
Setting [3] is: human functional selectivity: hCTR funct. EC50 / hAmylin-R funct. EC50.

Each structure is given as a SMILES string. Numbered stars: 1 amine (or outer) side, 2 acyl side, 3 side chain; on linkers, the order of the positions; unused ones are H or OH. Bridge positions count the residues as written; N and C are the ends. Side chains are listed from the residue outwards. Peptide text beside a SMILES is read from it. * marks the point of attachment. C20 diacid = O=C(O)CCCCCCCCCCCCCCCCCCC(=O)*; γGlu = O=C(O)[C@H](CCC(=O)[*:2])N[*:1]

T1 sequence (O60896 24-148): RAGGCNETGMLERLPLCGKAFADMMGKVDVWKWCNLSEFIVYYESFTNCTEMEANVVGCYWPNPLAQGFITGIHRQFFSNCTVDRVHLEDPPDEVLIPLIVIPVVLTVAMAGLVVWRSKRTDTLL
T1 sequence (P30988 25-474): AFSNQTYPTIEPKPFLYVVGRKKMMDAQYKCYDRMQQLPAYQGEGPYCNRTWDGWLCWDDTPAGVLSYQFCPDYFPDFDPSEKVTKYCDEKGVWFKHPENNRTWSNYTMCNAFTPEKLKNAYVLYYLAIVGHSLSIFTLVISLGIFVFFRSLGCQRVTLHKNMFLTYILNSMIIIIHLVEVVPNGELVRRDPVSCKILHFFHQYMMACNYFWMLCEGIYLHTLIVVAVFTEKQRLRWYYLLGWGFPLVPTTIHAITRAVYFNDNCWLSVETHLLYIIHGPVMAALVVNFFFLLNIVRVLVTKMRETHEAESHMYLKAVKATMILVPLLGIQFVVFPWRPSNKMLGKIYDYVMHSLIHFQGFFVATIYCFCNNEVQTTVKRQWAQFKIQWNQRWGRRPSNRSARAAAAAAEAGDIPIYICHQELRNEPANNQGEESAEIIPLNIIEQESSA

Take `CC[C@H](C)[C@H](NC(=O)[C@H](C)NC(=O)CNC(=O)[C@H](Cc1ccccc1)NC(=O)[C@H](CC(N)=O)NC(=O)[C@@H]1CCCN1C(=O)[C@H](CO)NC(=O)[C@H](CO)NC(=O)[C@H](Cc1c[nH]cn1)NC(=O)[C@H](CCCNC(=N)N)NC(=O)[C@H](CC(C)C)NC(=O)[C@H](Cc1ccccc1)NC(=O)[C@H](CCC(=O)O)NC(=O)[C@H](C)NC(=O)[C@H](CC(C)C)NC(=O)[C@H](CCCNC(=N)N)NC(=O)[C@H](CCC(N)=O)NC(=O)[C@@H](NC(=O)[C@H](C)NC(=O)[C@@H]1CSSC[C@H](NC(=O)[C@@H](N)CCCCNC(=O)CC[C@H](NC(=O)CCCCCCCCCCCCCCCCCCC(=O)O)C(=O)O)C(=O)N[C@@H](CC(N)=O)C(=O)N[C@@H]([C@@H](C)O)C(=O)N[C@@H](C)C(=O)N[C@@H]([C@@H](C)O)C(=O)N1)[C@@H](C)O)C(=O)N1CCC[C@H]1C(=O)N[C@@H](CO)C(=O)N[C@@H](CO)C(=O)N[C@H](C(=O)N[C@@H](CC(N)=O)C(=O)N[C@H](C(=O)NCC(=O)N[C@@H](CO)C(=O)N[C@@H](Cc1c[nH]cn1)C(=O)N[C@H](C(=O)N[C@@H](Cc1ccc(O)cc1)C(N)=O)[C@@H](C)O)C(C)C)[C@@H](C)O` [Example 128] (H-K([γGlu-C20 diacid])CNTATCATQRLAEFLRHSSPNFGAIPSSTNVGSHTY-NH2; disulfide 2-7 (inferred); N-terminus assumed): the “Ratio hCT/hAmylin funct.” value runs as follows: under setting [1], 13.1; under setting [2], 13.1; under setting [3], 13.1.
Take `CC[C@H](C)[C@H](NC(=O)[C@H](C)NC(=O)CNC(=O)[C@H](Cc1ccccc1)NC(=O)[C@H](CC(N)=O)NC(=O)[C@@H]1CCCN1C(=O)[C@H](CO)NC(=O)[C@H](CO)NC(=O)[C@H](Cc1c[nH]cn1)NC(=O)[C@H](CCCNC(=N)N)NC(=O)[C@H](CC(C)C)NC(=O)[C@H](Cc1ccccc1)NC(=O)[C@H](CC(N)=O)NC(=O)[C@H](C)NC(=O)[C@H](CC(C)C)NC(=O)[C@H](CCCNC(=N)N)NC(=O)[C@H](CCC(N)=O)NC(=O)[C@@H](NC(=O)[C@H](C)NC(=O)[C@@H]1CSSC[C@H](NC(=O)[C@@H](N)CCCCNC(=O)CC[C@H](NC(=O)CCCCCCCCCCCCCCCCC(=O)O)C(=O)O)C(=O)N[C@@H](CC(N)=O)C(=O)N[C@@H]([C@@H](C)O)C(=O)N[C@@H](C)C(=O)N[C@@H]([C@@H](C)O)C(=O)N1)[C@@H](C)O)C(=O)N1CCC[C@H]1C(=O)N[C@@H](CO)C(=O)N[C@@H](CO)C(=O)N[C@H](C(=O)N[C@@H](CC(N)=O)C(=O)N[C@H](C(=O)NCC(=O)N[C@@H](Cc1c[nH]cn1)C(=O)N[C@@H](CC(N)=O)C(=O)N[C@H](C(=O)N[C@@H](Cc1ccc(O)cc1)C(N)=O)[C@@H](C)O)C(C)C)[C@@H](C)O` [Example 113]: the “Ratio hCT/hAmylin funct.” value is, setting by setting: under setting [1], 60.9; under setting [2], 60.9; under setting [3], 60.9.
For the compound `CC[C@H](C)[C@H](NC(=O)[C@H](C)NC(=O)CNC(=O)[C@H](Cc1ccccc1)NC(=O)[C@H](CC(N)=O)NC(=O)[C@@H]1CCCN1C(=O)[C@H](CO)NC(=O)[C@H](CO)NC(=O)[C@H](Cc1c[nH]cn1)NC(=O)[C@H](CCCNC(=N)N)NC(=O)[C@H](CC(C)C)NC(=O)[C@H](Cc1ccccc1)NC(=O)[C@H](Cc1c[nH]cn1)NC(=O)[C@H](C)NC(=O)[C@H](CC(C)C)NC(=O)[C@H](CCCNC(=N)N)NC(=O)[C@H](CCC(N)=O)NC(=O)[C@@H](NC(=O)[C@H](C)NC(=O)[C@@H]1CSSC[C@H](NC(=O)[C@H](CCCCN)NC(=O)CC[C@H](NC(=O)CCCCCCCCCCCCCCCCCCC(=O)O)C(=O)O)C(=O)N[C@@H](CC(N)=O)C(=O)N[C@@H]([C@@H](C)O)C(=O)N[C@@H](C)C(=O)N[C@@H]([C@@H](C)O)C(=O)N1)[C@@H](C)O)C(=O)N1CCC[C@H]1C(=O)N[C@@H](CO)C(=O)N[C@@H](CO)C(=O)N[C@H](C(=O)N[C@@H](CC(N)=O)C(=O)N[C@H](C(=O)NCC(=O)N[C@@H](CO)C(=O)N[C@@H](CCC(=O)O)C(=O)N[C@H](C(=O)N[C@@H](Cc1ccc(O)cc1)C(N)=O)[C@@H](C)O)C(C)C)[C@@H](C)O` [Example 30] ({C20 diacid-γGlu}-KCNTATCATQRLAHFLRHSSPNFGAIPSSTNVGSETY-NH2; disulfide 2-7), the “Ratio hCT/hAmylin funct.” value under setting [1] was found to be 12.6, the “Ratio hCT/hAmylin funct.” value under setting [2] is reported as 12.6 and the “Ratio hCT/hAmylin funct.” value under setting [3] turned out to be 12.6.
For the compound `CC[C@H](C)[C@H](NC(=O)[C@H](C)NC(=O)CNC(=O)[C@H](Cc1ccccc1)NC(=O)[C@H](CC(N)=O)NC(=O)[C@@H]1CCCN1C(=O)[C@H](CO)NC(=O)[C@H](CO)NC(=O)[C@H](Cc1c[nH]cn1)NC(=O)[C@H](CCCNC(=N)N)NC(=O)[C@H](CC(C)C)NC(=O)[C@H](Cc1ccccc1)NC(=O)[C@H](CC(=O)O)NC(=O)[C@H](C)NC(=O)[C@H](CC(C)C)NC(=O)[C@H](CCCNC(=N)N)NC(=O)[C@H](CCC(N)=O)NC(=O)[C@@H](NC(=O)[C@H](C)NC(=O)[C@@H]1CSSC[C@H](NC(=O)[C@@H](N)CCCCNC(=O)CC[C@H](NC(=O)CC[C@H](NC(=O)CCCCCCCCCCCCCCCCCCC(=O)O)C(=O)O)C(=O)O)C(=O)N[C@@H](CC(N)=O)C(=O)N[C@@H]([C@@H](C)O)C(=O)N[C@@H](C)C(=O)N[C@@H]([C@@H](C)O)C(=O)N1)[C@@H](C)O)C(=O)N1CCC[C@H]1C(=O)N[C@@H](CO)C(=O)N[C@@H](CO)C(=O)N[C@H](C(=O)N[C@@H](CC(N)=O)C(=O)N[C@H](C(=O)NCC(=O)N1CCC[C@H]1C(=O)N[C@@H](CCCNC(=N)N)C(=O)N[C@H](C(=O)N[C@@H](Cc1ccc(O)cc1)C(N)=O)[C@@H](C)O)C(C)C)[C@@H](C)O` [Example 130] (H-K([γGlu-γGlu-C20 diacid])CNTATCATQRLADFLRHSSPNFGAIPSSTNVGPRTY-NH2; disulfide 2-7 (inferred); N-terminus assumed), the “Ratio hCT/hAmylin funct.” value reads like this: under setting [1], 44.9; under setting [2], 44.9; under setting [3], 44.9.
In the case of `CC[C@H](C)[C@H](NC(=O)[C@H](C)NC(=O)CNC(=O)[C@H](Cc1ccccc1)NC(=O)[C@H](CC(N)=O)NC(=O)[C@@H]1CCCN1C(=O)[C@H](CO)NC(=O)[C@H](CO)NC(=O)[C@H](Cc1c[nH]cn1)NC(=O)[C@H](CCCNC(=N)N)NC(=O)[C@H](CC(C)C)NC(=O)[C@H](Cc1ccccc1)NC(=O)[C@H](CCC(=O)O)NC(=O)[C@H](C)NC(=O)[C@H](CC(C)C)NC(=O)[C@H](CCCNC(=N)N)NC(=O)[C@H](CCC(N)=O)NC(=O)[C@@H](NC(=O)[C@H](C)NC(=O)[C@@H]1CSSC[C@H](NC(=O)[C@@H](N)CCCCNC(=O)CC[C@H](NC(=O)CC[C@H](NC(=O)CCCCCCCCCCCCCCCCCCC(=O)O)C(=O)O)C(=O)O)C(=O)N[C@@H](CC(N)=O)C(=O)N[C@@H]([C@@H](C)O)C(=O)N[C@@H](C)C(=O)N[C@@H]([C@@H](C)O)C(=O)N1)[C@@H](C)O)C(=O)N1CCC[C@H]1C(=O)N[C@@H](CO)C(=O)N[C@@H](CO)C(=O)N[C@H](C(=O)N[C@@H](CC(N)=O)C(=O)N[C@H](C(=O)NCC(=O)N[C@@H](Cc1c[nH]cn1)C(=O)N[C@@H](CCC(=O)O)C(=O)N[C@H](C(=O)N[C@@H](Cc1ccc(O)cc1)C(N)=O)[C@@H](C)O)C(C)C)[C@@H](C)O` [Example 104] (H-K([γGlu-γGlu-C20 diacid])CNTATCATQRLAEFLRHSSPNFGAIPSSTNVGHETY-NH2; disulfide 2-7; N-terminus assumed), the “Ratio hCT/hAmylin funct.” value is, setting by setting: under setting [1], 15.8; under setting [2], 15.8; under setting [3], 15.8.
Take `CC[C@H](C)[C@H](NC(=O)[C@H](C)NC(=O)CNC(=O)[C@H](Cc1ccccc1)NC(=O)[C@H](CC(N)=O)NC(=O)[C@@H]1CCCN1C(=O)[C@H](CO)NC(=O)[C@H](CO)NC(=O)[C@H](Cc1c[nH]cn1)NC(=O)[C@H](CCCNC(=N)N)NC(=O)[C@H](CC(C)C)NC(=O)[C@H](Cc1ccccc1)NC(=O)[C@H](CC(N)=O)NC(=O)[C@H](C)NC(=O)[C@H](CC(C)C)NC(=O)[C@H](CCCNC(=N)N)NC(=O)[C@H](CCC(N)=O)NC(=O)[C@@H](NC(=O)[C@H](C)NC(=O)[C@@H]1CSSC[C@H](NC(=O)[C@H](CCCCN)NC(=O)CC[C@H](NC(=O)CCCCCCCCCCCCCCCCCCC(=O)O)C(=O)O)C(=O)N[C@@H](CC(N)=O)C(=O)N[C@@H]([C@@H](C)O)C(=O)N[C@@H](C)C(=O)N[C@@H]([C@@H](C)O)C(=O)N1)[C@@H](C)O)C(=O)N1CCC[C@H]1C(=O)N[C@@H](CO)C(=O)N[C@@H](CO)C(=O)N[C@H](C(=O)N[C@@H](CC(N)=O)C(=O)N[C@H](C(=O)NCC(=O)N[C@@H](CO)C(=O)N[C@@H](CCC(=O)O)C(=O)N[C@H](C(=O)N[C@@H](Cc1ccc(O)cc1)C(N)=O)[C@@H](C)O)C(C)C)[C@@H](C)O` [Example 23]: the “Ratio hCT/hAmylin funct.” value is given as 8.9 under setting [1], 8.9 under setting [2] and 8.9 under setting [3].
In the case of `CC[C@H](C)[C@H](NC(=O)[C@H](C)NC(=O)CNC(=O)[C@H](Cc1ccccc1)NC(=O)[C@H](CC(N)=O)NC(=O)[C@@H]1CCCN1C(=O)[C@H](CO)NC(=O)[C@H](CO)NC(=O)[C@H](Cc1c[nH]cn1)NC(=O)[C@H](CCCNC(=N)N)NC(=O)[C@H](CC(C)C)NC(=O)[C@H](Cc1ccccc1)NC(=O)[C@H](CCC(=O)O)NC(=O)[C@H](C)NC(=O)[C@H](CC(C)C)NC(=O)[C@H](CCCNC(=N)N)NC(=O)[C@H](CCC(N)=O)NC(=O)[C@@H](NC(=O)[C@H](C)NC(=O)[C@@H]1CSSC[C@H](NC(=O)[C@H](CCCCN)NC(=O)CC[C@H](NC(=O)CCCCCCCCCCCCCCCCCCC(=O)O)C(=O)O)C(=O)N[C@@H](CC(N)=O)C(=O)N[C@@H]([C@@H](C)O)C(=O)N[C@@H](C)C(=O)N[C@@H]([C@@H](C)O)C(=O)N1)[C@@H](C)O)C(=O)N1CCC[C@H]1C(=O)N[C@@H](CO)C(=O)N[C@@H](CO)C(=O)N[C@H](C(=O)N[C@@H](CC(N)=O)C(=O)N[C@H](C(=O)NCC(=O)N1CCC[C@H]1C(=O)N[C@@H](CC(N)=O)C(=O)N[C@H](C(=O)N[C@@H](Cc1ccc(O)cc1)C(N)=O)[C@@H](C)O)C(C)C)[C@@H](C)O` [Example 32] ({C20 diacid-γGlu}-KCNTATCATQRLAEFLRHSSPNFGAIPSSTNVGPNTY-NH2; disulfide 2-7), the “Ratio hCT/hAmylin funct.” value reads like this: under setting [1], 6.6; under setting [2], 6.6; under setting [3], 6.6.
